A word on the LOAEL: it is the lowest dose or exposure tested at which an adverse effect was seen. For orientation: NOAEL means the highest dose or exposure tested at which no adverse effect was seen.

Data on 2 molecules can be found in EPA's ToxValDB 9.5 (doi:10.2903/j.efsa.2008.150r).

One data set deals with Tagia sp. The conditions noted are these: acute; duration: 14 days; mortality.
A further data set relates to Rattus norvegicus. The conditions noted are these: for LD50: acute, mortality.
The subject of the next data set is Anas platyrhynchos. The conditions noted are these: for LD50: oral, mortality; for NOEL: reproductive.
Another data set deals with Apis mellifera. The conditions noted are these: acute; duration: 48 hours; oral; unspecified; mortality.
The subject of a further data set is Aphidius rhopalosiphi. Description: LR50; higher = less toxic. The conditions noted are these: not reported; mortality.
The test system of another data set is Typhlodromus pyri. Description: LR50; higher = less toxic. The conditions noted are these: not reported; mortality.

Converted amounts (≈) assume the structure as drawn.

As to `CS(=O)(=O)c1ccc(C(=O)C2C(=O)CCCC2=O)c(Cl)c1` [Sulcotrione], the LC50 is over 1000 mg/kg in the data set with Tagia sp. and 227 µg/mL (≈ 690 µM) in the data set on Oncorhynchus mykiss (acute, duration: 96 hours, mortality). The LD50 in the data set on Rattus norvegicus was over 5000 mg/kg-day; with Anas platyrhynchos (acute, unspecified), over 1350 mg/kg-day; in the data set on Anas platyrhynchos (short-term, feed), over 1260 mg/kg-day; in the data set with Apis mellifera, 50 µg/piece. In addition, the NOEL is 0.5 mg/kg-day with Rattus norvegicus (chronic); 17 mg/kg-day with Anas platyrhynchos (duration: 6 weeks); under 10.9 mg/kg-day in the data set on Anas platyrhynchos (duration: 20 weeks, body weight). In the data set with Rattus norvegicus (chronic, duration: 2 years, organ weight), this molecule had an LOAEL of 0.04 mg/kg-day. For the same molecule, the NOAEL with Rattus norvegicus (reproduction developmental, organ weight) was 0.06 mg/kg-day. For the same molecule, the NOEC with Oncorhynchus mykiss (chronic/long-term, duration: 28 days, growth) amounted to 3.2 mg/L. The LR50 with Aphidius rhopalosiphi and in the data set with Typhlodromus pyri was over 450 g/ha throughout.
Regarding `CS(=O)(=O)c1ccc(C(=O)O)c(Cl)c1` [Benzoic acid, 2-chloro-4-(methylsulfonyl)-], the LD50 was over 2000 mg/kg-day with Rattus norvegicus (oral) and over 2010 mg/kg-day in the data set on Anas platyrhynchos (short-term, feed). For the same molecule, in the data set with Rattus norvegicus (reproduction developmental, M, reproduction), the NOEL stood at 969 mg/kg-day.
